Broadly, the fraction unbound is free concentration divided by total concentration. Low values mean little free substance, high ones much free substance. Broadly, the ED50 is the dose at which the effect has come halfway, by size or by number of responders.

Read-outs that look alike come from different tables or passages of the source.

Data set [1] deals with rat formalin model.
Data set [2] can be described thus: Protein binding in rat plasma, equilibrium dialysis. It counts as in vitro ADME. Conditions: equilibrium dialysis 5 hours 37°C, Theravance, Inc., unpublished data. Background: In equilibrium dialysis only unbound substance equilibrates across the membrane.
Protocol: (§1) The in vitro unbound fraction of reuptake inhibitors in rat brain homogenates (5 µM) and in rat plasma protein (1 µM) was evaluated using equilibrium dialysis using the HT-Dialysis device (Gayles-Ferry, CT). Brain homogenate or plasma was spiked with test compounds and dialyzed against blank PBS for 5 hours at 37°C. The matrices from both sides of the dialysis membranes were equalized and extracted with acetonitrile. Unbound fractions for each compound were calculated as the ratio of peak areas from the PBS side to peak areas from the tissue or plasma side. Peak areas were corrected for dilution of the tissue made prior to spiking compound. Quantification was via LC/MS/MS.
Data set [3] is described as follows: Binding in rat brain homogenates, equilibrium dialysis. Conditions: brain homogenate, equilibrium dialysis 5 hours 37°C, Theravance, Inc., unpublished data. It counts as in vitro ADME.
Protocol: as §1
Another data set concerns the target NET (Rattus norvegicus, UniProt Q63380). Description: in vivo. Conditions: ip, read-out: NET occupancy ex vivo.
Data set [4] addresses T1, SERT (Rattus norvegicus, UniProt P31652). Description: in vivo. As to conditions: ip, read-out: SERT occupancy ex vivo.
Protocol: (§2) Ex vivo occupancy studies were performed similarly to those described previously [31]. At a single time point at the conclusion of phase 2A (75 min post-dose), a 5 mm^2 piece of frontal cortex was dissected, frozen rapidly, and stored at −80°C until use. Cortical crude homogenates were prepared and the initial rates (vi(vehicle) or vi, respectively) of [^3H]-citalopram (SERT) or [^3H]-nisoxetine (NET) binding determined over a 3-min time course. The % NET or SERT transporter occupancy for compound-dosed animals was calculated using the following equation: 100*(1−vi)/average vi(vehicle).
Data set [5] is described as follows: Plasma and brain unbound concentrations by LC/MS/MS. As to conditions: rat, 75 min post-dosing.
Protocol: Plasma and brain concentrations of reuptake inhibitors were determined by LC/MS/MS. Samples (10–20 µL) were injected in a Hypurity C18 column (50×2.1 mm; 3 µM) with a flow rate of 0.5 mL/min. […] Various gradient elutions were used and the mass spectrometers (Sciex API5000 and API4000; Applied Biosystems, Foster City, CA) were operated in positive ion multiple reaction monitoring mode.
For the pharmacokinetic and bioanalytical analyses, free plasma and free brain concentrations were calculated using the in vitro unbound fractions in rat plasma and brain homogenates, respectively.
The subject of the next data set is rat RotaRod test. As to conditions: morphine 3 mg/kg SC alone, 60 min post-dose; statistically significant.
Data set [6] has as its system rat formalin model. Description: animal or person. Conditions: read-out: ED50, antinociception, drug alone.
For data set [7], the target named is T1, SERT. Conditions: summary over 3 and 10 mg/kg IP (discussion).
Protocol: as §2
Data set [8] has as its system SERT. Conditions: therapeutic dose of 60 mg; cited from earlier work.
[9] abbreviates: 10 mg/kg IP, drug alone, mean ± SEM.

T1 sequence (P31652 whole entry): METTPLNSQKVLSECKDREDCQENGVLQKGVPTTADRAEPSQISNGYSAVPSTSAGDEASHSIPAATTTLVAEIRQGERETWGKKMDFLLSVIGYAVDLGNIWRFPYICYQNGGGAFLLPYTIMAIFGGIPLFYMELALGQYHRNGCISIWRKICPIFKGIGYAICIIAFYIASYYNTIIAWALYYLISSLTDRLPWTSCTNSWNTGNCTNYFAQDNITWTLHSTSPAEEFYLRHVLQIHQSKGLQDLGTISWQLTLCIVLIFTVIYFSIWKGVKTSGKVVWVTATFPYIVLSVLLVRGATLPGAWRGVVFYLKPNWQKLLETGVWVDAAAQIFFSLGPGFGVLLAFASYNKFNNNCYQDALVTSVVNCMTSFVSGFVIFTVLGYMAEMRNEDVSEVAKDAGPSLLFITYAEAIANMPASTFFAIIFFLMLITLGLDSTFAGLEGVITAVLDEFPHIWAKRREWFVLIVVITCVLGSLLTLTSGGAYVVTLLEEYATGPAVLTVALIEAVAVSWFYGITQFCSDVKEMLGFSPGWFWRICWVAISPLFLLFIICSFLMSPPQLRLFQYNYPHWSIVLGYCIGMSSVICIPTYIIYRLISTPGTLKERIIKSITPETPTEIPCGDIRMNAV
Chain of NET (Q63380 1-617): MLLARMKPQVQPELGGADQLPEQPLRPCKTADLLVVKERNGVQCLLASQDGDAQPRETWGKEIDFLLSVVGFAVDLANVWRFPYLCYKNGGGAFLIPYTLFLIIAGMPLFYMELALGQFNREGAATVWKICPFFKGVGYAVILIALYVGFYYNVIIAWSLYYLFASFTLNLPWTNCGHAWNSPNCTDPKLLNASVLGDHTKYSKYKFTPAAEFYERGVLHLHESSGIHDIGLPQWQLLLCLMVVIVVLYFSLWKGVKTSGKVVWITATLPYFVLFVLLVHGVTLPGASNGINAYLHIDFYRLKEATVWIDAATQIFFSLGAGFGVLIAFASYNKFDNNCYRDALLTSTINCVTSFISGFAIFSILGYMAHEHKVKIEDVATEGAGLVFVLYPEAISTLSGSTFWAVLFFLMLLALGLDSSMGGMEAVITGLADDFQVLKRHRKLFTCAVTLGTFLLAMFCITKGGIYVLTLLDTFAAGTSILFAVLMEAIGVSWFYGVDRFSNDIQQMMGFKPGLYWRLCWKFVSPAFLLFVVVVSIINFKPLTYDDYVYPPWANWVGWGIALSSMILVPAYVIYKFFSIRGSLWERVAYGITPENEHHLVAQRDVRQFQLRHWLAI
Protocol for NET: as §2

For the molecule `Cc1nccn1CC1CCc2c(c3ccccc3n2C)C1=O` (stereo not shown) [ondansetron], in the data set on rat formalin model [1] (rat, in vivo), the “antinociceptive activity, alone” value is “did not exhibit antinociceptive activity”; the “effect on antinociceptive response to duloxetine and morphine” value is “potentiated the antinociceptive response”; the “effect on antinociceptive response to fluoxetine and morphine” value is listed as “failed to potentiate the antinociceptive response”.
In [2], `CNCCC(Oc1ccc(C(F)(F)F)cc1)c1ccccc1` (stereo not shown) [fluoxetine] gave a fraction unbound at 5 h, 1 µM of 0.067. Further, the fraction unbound at 5 h, 5 µM in data set [3] is 0.0045. This molecule also yielded an inhibition of flinching in the data set with rat formalin model [1] (setting [9]) of 9±4%.
`CCOc1ccccc1O[C@@H](c1ccccc1)[C@@H]1CNCCO1` [esreboxetine]: in the data set with rat formalin model [1] (rat, in vivo), the inhibition of flinching is recorded as 17±9%. Besides, the figures for the receptor occupancy at 10 mg/kg on NET and at SERT [4] were 82 ± 5% and 3 ± 5%, respectively. In addition, the concentration at 75 min in data set [5] (brain, intraperitoneal, 10 mg/kg, [Brain]unbound, esreboxetine 10 mg/kg, − fluoxetine − morphine) came out at 20.4 ± 14.4 ng/g; in [5] (brain, intraperitoneal, [Brain]unbound, esreboxetine 10 mg/kg + fluoxetine 1 + morphine 1 mg/kg), 25 ± 5.8 ng/g; in data set [5] (brain, intraperitoneal, [Brain]unbound, esreboxetine 10 mg/kg + morphine 1 mg/kg), 12.7 ± 9.9 ng/g; in [5] (plasma, intraperitoneal, 10 mg/kg, [Plasma]unbound, esreboxetine 10 mg/kg, − fluoxetine − morphine) it was 0.0334 ± 0.0122 µg/mL; in data set [5] (plasma, intraperitoneal, [Plasma]unbound, esreboxetine 10 mg/kg + fluoxetine 1 + morphine 1 mg/kg), 0.0312 ± 0.0086 µg/mL; in data set [5] (plasma, intraperitoneal, [Plasma]unbound, esreboxetine 10 mg/kg + morphine 1 mg/kg), 0.021 ± 0.0177 µg/mL.
As to `CN1CC[C@]23c4c5ccc(O)c4O[C@H]2[C@@H](O)C=C[C@H]3[C@H]1C5` [morphine], in the data set with rat formalin model [1] (1 mg/kg SC, alone, mean ± SEM), the inhibition of flinching amounted to 18±5%. Also, the “inhibition of flinching (decrease in nociceptive behavior)” value in the data set with rat formalin model [1] (3 mg/kg SC, alone, mean ± SEM) is 77%±6. Besides, the “reduction in walking time” value with rat RotaRod test was 65±12%. Also, the ED50 in the data set on rat formalin model [6] turned out to be 2.3 mg/kg.
With `C=CCN1CC[C@]23c4c5ccc(O)c4O[C@H]2C(=O)CC[C@@]3(O)[C@H]1C5` [naloxone], the “effect on atomoxetine-induced antinociception” value in the data set with rat formalin model [1] (naloxone 5 mg/kg IP, atomoxetine 10 and 30 mg/kg IP) is listed as “failed to attenuate”. Further, in the data set with rat formalin model [1] (naloxone 5 mg/kg IP, morphine 3 mg/kg, p<0.001), the “effect on morphine-induced antinociception” value was “effectively blocked”.
With `CNCC[C@@H](Oc1ccccc1C)c1ccccc1` [atomoxetine], the fraction unbound at 5 h, 1 µM in data set [2] was 0.18. In data set [3], this molecule yielded a fraction unbound at 5 h, 5 µM of 0.021. Also, the inhibition of flinching is recorded as 4±11% with rat formalin model [1] (3 mg/kg IP, drug alone, mean ± SEM) and 19±6% in the data set with rat formalin model [1] (setting [9]). In addition, at SERT [7], the “SERT occupancy at doses that exhibited synergy with morphine” value is given as 35 to 64%. Further, the receptor occupancy at 3 mg/kg at SERT [4] came to 35 ± 9%. For the same molecule, at SERT [4], the receptor occupancy at 10 mg/kg stood at 64 ± 5%. Further, the ED50 in the data set with rat formalin model [6] was found to be 27.8 mg/kg. Moreover, the concentration at 75 min turned out to be 58.2 ± 10.9 ng/g in data set [5] (in vivo, 10 mg/kg, [Brain]unbound, atomoxetine 10 mg/kg, − morphine, mean ± SD); 0.0509 ± 0.0058 µg/mL in data set [5] (in vivo, 10 mg/kg, [Plasma]unbound, atomoxetine 10 mg/kg, − morphine, mean ± SD); 52.6 ± 14.4 ng/g in [5] (in vivo, [Brain]unbound, atomoxetine 10 mg/kg + morphine 3 mg/kg); 0.0579 ± 0.0125 µg/mL in [5] (in vivo, [Plasma]unbound, atomoxetine 10 mg/kg + morphine 3 mg/kg).
On to `CNCC[C@H](Oc1cccc2ccccc12)c1cccs1` [duloxetine], for which the fraction unbound at 5 h, 1 µM in data set [2] was 0.031. Further, the fraction unbound at 5 h, 5 µM in [3] was found to be 0.007. The inhibition of flinching in the data set on rat formalin model [1] (5 mg/kg IP, drug alone, mean ± SEM) is given as 19±12%. The “interaction with morphine at higher doses” value with rat formalin model [1] (higher doses of duloxetine, antinociceptive in the absence of morphine, data not shown) is recorded as “exhibited additivity with morphine”. Further, the “occupancy of SERT by positron emission tomography” value in the data set on SERT [8] is listed as “near-maximal occupancy”. In the data set with rat formalin model [6], the ED50 was 10.9 mg/kg. Moreover, the concentration at 75 min in [5] (brain, intraperitoneal, 5 mg/kg, [Brain]unbound, duloxetine 5 mg/kg, − ondansetron − morphine) was 13 ± 1.5 ng/g; in data set [5] (brain, intraperitoneal, [Brain]unbound, duloxetine 5 mg/kg + ondansetron 3 + morphine 1 mg/kg), 16.5 ± 4.1 ng/g; in [5] (plasma, intraperitoneal, 5 mg/kg, [Plasma]unbound, duloxetine 5 mg/kg, − ondansetron − morphine), 0.00498 ± 0.0014 µg/mL; in [5] (plasma, intraperitoneal, [Plasma]unbound, duloxetine 5 mg/kg + ondansetron 3 + morphine 1 mg/kg), 0.00455 ± 0.0007 µg/mL.

The values are drawn from paper PMC3787017, “Relative Contributions of Norepinephrine and Serotonin Transporters to Antinociceptive Synergy between Monoamine Reuptake Inhibitors and Morphine in the Rat Formalin Model” (PLoS ONE, 2013).
